The Kinase Knowledgebase extract (Sharma et al. 2016)

Target: PIK3CD (Human) (UniProt O00329)
Assay: Assessment of PIK3CD Kinase Activity

PIK3CD (Human), sequence (O00329 whole entry, looked up): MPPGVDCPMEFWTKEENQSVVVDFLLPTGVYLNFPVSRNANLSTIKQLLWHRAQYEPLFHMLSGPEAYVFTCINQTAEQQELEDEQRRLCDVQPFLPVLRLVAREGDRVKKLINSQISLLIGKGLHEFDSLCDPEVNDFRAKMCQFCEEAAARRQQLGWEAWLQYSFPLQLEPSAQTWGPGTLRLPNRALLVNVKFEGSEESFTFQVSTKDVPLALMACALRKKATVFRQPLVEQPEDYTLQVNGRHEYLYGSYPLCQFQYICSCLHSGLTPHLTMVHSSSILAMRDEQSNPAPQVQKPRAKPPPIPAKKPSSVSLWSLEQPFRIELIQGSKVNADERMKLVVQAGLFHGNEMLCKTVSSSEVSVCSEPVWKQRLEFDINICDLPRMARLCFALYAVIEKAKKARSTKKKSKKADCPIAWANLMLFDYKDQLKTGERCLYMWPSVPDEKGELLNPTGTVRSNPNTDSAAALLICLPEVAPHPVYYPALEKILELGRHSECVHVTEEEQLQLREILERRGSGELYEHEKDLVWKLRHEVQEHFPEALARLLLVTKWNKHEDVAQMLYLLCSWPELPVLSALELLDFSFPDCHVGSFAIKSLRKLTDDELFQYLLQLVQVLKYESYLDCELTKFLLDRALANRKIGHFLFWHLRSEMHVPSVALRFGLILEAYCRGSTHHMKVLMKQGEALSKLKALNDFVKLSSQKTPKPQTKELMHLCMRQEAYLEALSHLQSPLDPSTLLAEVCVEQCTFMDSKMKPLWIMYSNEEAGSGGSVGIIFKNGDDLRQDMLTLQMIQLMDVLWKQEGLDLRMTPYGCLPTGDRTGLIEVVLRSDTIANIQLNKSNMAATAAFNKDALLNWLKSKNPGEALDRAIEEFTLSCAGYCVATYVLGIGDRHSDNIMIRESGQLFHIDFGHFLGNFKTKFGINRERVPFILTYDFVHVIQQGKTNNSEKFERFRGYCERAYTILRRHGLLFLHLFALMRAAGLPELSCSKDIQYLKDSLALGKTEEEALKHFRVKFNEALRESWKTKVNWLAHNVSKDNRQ

| SMILES | IC50 |
| --- | --- |
| COc1cc(NCc2cc3cccc(C)c3nc2-c2ccccc2Cl)cc(OC)c1 | 500 to 1500 nM |
| COc1cnc(C(=O)NCc2nc3ccccc3cc2-c2ccccc2C)c(N)n1 | 500 to 1500 nM |
| COc1ccc(NCc2cc3cccc(C)c3nc2-c2ccccc2Cl)cc1OC | 500 to 1500 nM |
| COc1ccc(OCc2cc3cccc(C)c3nc2-c2ccccc2Cl)c(Cl)c1 | 500 to 1500 nM |
| CN(C)Cc1ccccc1-c1cc2c(Cl)cccc2nc1CNC(=O)c1nccnc1N | < 50 nM |
| CNCCN(C)c1nc2c(C)cccc2cc1COc1cccc(OC)c1 | 500 to 1500 nM |
| COc1cc(OC)cc(OCc2cc3cccc(C)c3nc2-c2ccccc2Cl)c1 | 500 to 1500 nM |
| COc1cccc(NCc2cc3cccc(C)c3nc2-c2ccccc2Cl)c1 | 500 to 1500 nM |

Now from value to molecule:

| IC50 | SMILES |
| --- | --- |
| 500 to 1500 nM | Cc1cccc2cc(Cn3cnc4c(N)ncnc43)c(N3CCC4CCCCC4C3)nc12 (configuration not stated) |
| 50 to 250 nM | CNCCCC(C)c1nc2c(C)cccc2cc1CNC(=O)c1nccnc1N (configuration not stated) |
| 50 to 250 nM | Cc1cccc2cc(CNC(=O)c3nccnc3N)c(N(C)CCN(C)C(=O)[C@@H]3CCCN3)nc12 |
| 500 to 1500 nM | Cc1ccc(S(=O)(=O)C(C)CCN(C)c2nc3c(C)cccc3cc2CNC(=O)c2nccnc2N)cc1 (configuration not stated) |
| 500 to 1500 nM | CNCCN(C)c1nc2c(C)cccc2cc1CNc1cccc(OC)c1 |
| 50 to 250 nM | Cc1ccc(C)c(-c2nc3c(C)cccc3cc2Cn2cnc3c(N)ncnc32)c1 |
| 500 to 1500 nM | Cc1cccc2cc(CNC(=O)c3nccnc3N)c(N3CCC(N(C)C(=O)OC(C)(C)C)CC3)nc12 |
| 250 to 500 nM | Cc1cccc2cc(CNC(=O)c3nccnc3N)c(N3C[C@H](C)NC[C@H]3C)nc12 |
| 250 to 500 nM | CCOc1ccccc1-c1nc2c(C)cccc2cc1Cn1cnc2c(N)ncnc21 |
